Reference: ChEMBL document CHEMBL1147510 (Bioorg Med Chem Lett, 2004)
Activity calls are given as the source filed them. No cut-off for these calls is given here.

What was measured:
Oocyte [1] = assay: Antagonism of ACh response at Nicotinic acetylcholine receptor alpha-3-beta-2-alpha-5 receptor expressed in xenopus oocytes up to 1 mM; type: functional, cell-based; conditions: Homo sapiens
[2] = target: T1, Neuronal acetylcholine receptor; alpha4/beta2 (Homo sapiens, UniProt P17787+P43681); assay: Responses to that evoked by ACh at human Nicotinic acetylcholine receptor alpha4-beta2 expressed in xenopus oocytes up to 1 mM; type: cell-based; conditions: Oocyte
[3] = target: T1, Neuronal acetylcholine receptor; alpha4/beta2; assay: Antagonism of ACh response at Nicotinic acetylcholine receptor alpha4-beta2 expressed in xenopus oocytes; type: functional, cell-based, Oocyte
[4] = target: T2, Neuronal acetylcholine receptor; alpha3/beta2 (Homo sapiens) (UniProt P17787+P32297); assay: Responses to that evoked by Nicotinic acetylcholine receptor alpha3-beta2 expressed in xenopus oocytes up to 1 mM; type: cell-based; conditions: Oocyte
[5] = target: T3, Neuronal acetylcholine receptor; alpha3/beta4 (Homo sapiens, UniProt P30926+P32297); assay: Responses to that evoked by Nicotinic acetylcholine receptor alpha3-beta4 expressed in xenopus oocytes up to 1 mM; type: cell-based; conditions: Oocyte
[6] = target: T4, 5-hydroxytryptamine receptor 3A (Rattus norvegicus) (UniProt P35563); assay: Ability to block serotonin (30 uM)-evoked responses at rat 5HT3-alpha receptor expressed in xenopus oocytes; type: functional, cell-based; conditions: Oocyte
T4 sequence (whole entry): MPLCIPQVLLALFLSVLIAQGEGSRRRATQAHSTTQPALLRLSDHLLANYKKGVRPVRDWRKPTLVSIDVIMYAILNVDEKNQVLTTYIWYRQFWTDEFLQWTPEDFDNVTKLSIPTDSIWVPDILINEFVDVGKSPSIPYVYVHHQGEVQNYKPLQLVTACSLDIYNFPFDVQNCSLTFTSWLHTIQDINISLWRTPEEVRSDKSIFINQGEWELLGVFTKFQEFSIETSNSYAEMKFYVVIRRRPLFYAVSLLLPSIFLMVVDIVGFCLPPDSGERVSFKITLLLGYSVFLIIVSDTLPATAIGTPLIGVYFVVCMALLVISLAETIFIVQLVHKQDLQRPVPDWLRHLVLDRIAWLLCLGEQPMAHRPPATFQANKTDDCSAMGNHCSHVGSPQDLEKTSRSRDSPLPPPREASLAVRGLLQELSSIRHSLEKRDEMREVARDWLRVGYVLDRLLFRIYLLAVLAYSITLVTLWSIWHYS

[7] = target: T3, Neuronal acetylcholine receptor; alpha3/beta4; assay: Activation responses to that evoked by ACh at human alpha3-beta4 receptor expressed in xenopus oocytes at 1 mM; type: cell-based; conditions: Oocyte
[8] = target: T3, Neuronal acetylcholine receptor; alpha3/beta4; assay: Antagonism of ACh-evoked responses at human Nicotinic acetylcholine receptor alpha3-beta4 expressed in xenopus oocytes; type: functional, cell-based, Oocyte
[9] = target: T4, 5-hydroxytryptamine receptor 3A (Rattus norvegicus); assay: Effect on rat 5-hydroxytryptamine 3a receptor expressed in xenopus oocytes at concentration up to 100 uM; type: functional, cell-based; conditions: Oocyte
[10] = target: T5, Neuronal acetylcholine receptor subunit alpha-7 (Rattus norvegicus, UniProt Q05941); assay: Activation responses to that evoked by ACh at human Nicotinic acetylcholine receptor alpha-7 expressed in xenopus oocytes; type: cell-based, Oocyte
[11] = target: T1, Neuronal acetylcholine receptor; alpha4/beta2; assay: Activation responses to that evoked by ACh at human Nicotinic acetylcholine receptor alpha4-beta2; type: protein-complex assay
[12] = target: T2, Neuronal acetylcholine receptor; alpha3/beta2 (Homo sapiens); assay: Activation responses to that evoked by Nicotinic acetylcholine receptor alpha3-beta2 expressed in xenopus oocytes at 300 uM; type: cell-based; conditions: Oocyte
[13] = target: T2, Neuronal acetylcholine receptor; alpha3/beta2 (Homo sapiens); assay: Activation responses to that evoked by Nicotinic acetylcholine receptor alpha3-beta2 expressed in xenopus oocytes at 1 mM; type: cell-based; conditions: Oocyte
Oocyte [14] = assay: Activation responses to that evoked by ACh at human Nicotinic acetylcholine receptor alpha-3-beta-2-alpha-5 expressed in xenopus oocytes at 100 uM; type: cell-based
[15] = target: T1, Neuronal acetylcholine receptor; alpha4/beta2; assay: Activation responses to that evoked by ACh at human Nicotinic acetylcholine receptor alpha4-beta2 expressed in xenopus oocytes at 300 uM; type: cell-based; conditions: Oocyte
[16] = target: T5, Neuronal acetylcholine receptor subunit alpha-7; assay: Inhibition of the response to ACh when coapplied with Nicotinic acetylcholine receptor alpha7

T1 sequence (P17787 whole entry): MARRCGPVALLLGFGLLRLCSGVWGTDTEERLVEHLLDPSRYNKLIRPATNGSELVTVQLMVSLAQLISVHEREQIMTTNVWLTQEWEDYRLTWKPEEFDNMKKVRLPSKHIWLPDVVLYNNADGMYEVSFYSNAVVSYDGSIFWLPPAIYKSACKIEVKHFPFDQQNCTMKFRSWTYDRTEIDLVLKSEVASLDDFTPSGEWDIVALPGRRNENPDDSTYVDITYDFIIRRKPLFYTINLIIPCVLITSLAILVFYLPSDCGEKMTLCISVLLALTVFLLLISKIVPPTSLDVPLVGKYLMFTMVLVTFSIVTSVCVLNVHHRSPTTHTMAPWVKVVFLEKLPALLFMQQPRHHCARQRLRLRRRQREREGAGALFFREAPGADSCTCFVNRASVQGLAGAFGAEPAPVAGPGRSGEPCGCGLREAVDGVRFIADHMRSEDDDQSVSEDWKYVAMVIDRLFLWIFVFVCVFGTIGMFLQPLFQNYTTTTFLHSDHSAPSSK
T1 sequence (P43681 whole entry): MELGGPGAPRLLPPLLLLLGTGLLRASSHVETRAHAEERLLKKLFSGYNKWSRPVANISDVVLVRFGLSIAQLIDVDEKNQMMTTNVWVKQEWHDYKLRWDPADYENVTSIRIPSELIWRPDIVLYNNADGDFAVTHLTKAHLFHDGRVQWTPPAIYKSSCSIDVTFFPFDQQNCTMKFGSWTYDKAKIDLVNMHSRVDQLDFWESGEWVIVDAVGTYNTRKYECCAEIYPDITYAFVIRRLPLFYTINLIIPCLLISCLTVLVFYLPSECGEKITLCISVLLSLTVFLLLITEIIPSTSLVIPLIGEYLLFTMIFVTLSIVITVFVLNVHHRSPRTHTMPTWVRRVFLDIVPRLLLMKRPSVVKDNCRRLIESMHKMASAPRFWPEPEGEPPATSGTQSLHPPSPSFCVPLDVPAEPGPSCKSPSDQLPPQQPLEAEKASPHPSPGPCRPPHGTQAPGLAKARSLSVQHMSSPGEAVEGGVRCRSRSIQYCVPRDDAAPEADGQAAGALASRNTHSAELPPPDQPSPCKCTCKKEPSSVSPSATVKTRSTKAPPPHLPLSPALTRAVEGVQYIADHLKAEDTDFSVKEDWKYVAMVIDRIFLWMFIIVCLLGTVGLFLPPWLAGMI
T3 sequence (P30926 whole entry): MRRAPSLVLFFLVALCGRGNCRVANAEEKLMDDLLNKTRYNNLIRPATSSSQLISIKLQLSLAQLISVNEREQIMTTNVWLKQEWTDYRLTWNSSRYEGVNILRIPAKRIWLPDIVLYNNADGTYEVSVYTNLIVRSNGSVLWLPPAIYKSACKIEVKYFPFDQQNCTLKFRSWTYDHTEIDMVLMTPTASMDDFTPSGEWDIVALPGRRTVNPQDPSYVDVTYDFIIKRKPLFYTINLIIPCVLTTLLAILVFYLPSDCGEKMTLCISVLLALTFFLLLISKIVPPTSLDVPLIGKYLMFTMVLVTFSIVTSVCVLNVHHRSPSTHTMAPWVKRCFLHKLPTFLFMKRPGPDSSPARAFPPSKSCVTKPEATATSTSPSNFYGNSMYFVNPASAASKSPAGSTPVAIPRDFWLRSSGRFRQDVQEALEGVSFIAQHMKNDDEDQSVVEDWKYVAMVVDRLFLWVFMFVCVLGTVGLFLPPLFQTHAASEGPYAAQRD
T3 sequence (P32297 whole entry): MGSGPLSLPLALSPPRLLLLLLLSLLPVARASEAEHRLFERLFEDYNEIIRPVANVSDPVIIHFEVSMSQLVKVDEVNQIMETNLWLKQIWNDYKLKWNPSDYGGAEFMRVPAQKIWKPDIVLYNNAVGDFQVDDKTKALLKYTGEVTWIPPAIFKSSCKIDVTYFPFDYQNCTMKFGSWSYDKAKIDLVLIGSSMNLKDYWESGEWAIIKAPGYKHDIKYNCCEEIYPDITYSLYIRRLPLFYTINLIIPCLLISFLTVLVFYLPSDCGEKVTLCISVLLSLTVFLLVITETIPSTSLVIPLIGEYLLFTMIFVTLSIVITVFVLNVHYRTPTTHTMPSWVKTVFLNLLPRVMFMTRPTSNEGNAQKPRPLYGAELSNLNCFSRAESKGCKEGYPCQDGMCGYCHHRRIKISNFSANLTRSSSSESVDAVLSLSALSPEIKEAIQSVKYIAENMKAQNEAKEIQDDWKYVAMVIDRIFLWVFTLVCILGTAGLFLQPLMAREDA
T5 sequence (Q05941 whole entry): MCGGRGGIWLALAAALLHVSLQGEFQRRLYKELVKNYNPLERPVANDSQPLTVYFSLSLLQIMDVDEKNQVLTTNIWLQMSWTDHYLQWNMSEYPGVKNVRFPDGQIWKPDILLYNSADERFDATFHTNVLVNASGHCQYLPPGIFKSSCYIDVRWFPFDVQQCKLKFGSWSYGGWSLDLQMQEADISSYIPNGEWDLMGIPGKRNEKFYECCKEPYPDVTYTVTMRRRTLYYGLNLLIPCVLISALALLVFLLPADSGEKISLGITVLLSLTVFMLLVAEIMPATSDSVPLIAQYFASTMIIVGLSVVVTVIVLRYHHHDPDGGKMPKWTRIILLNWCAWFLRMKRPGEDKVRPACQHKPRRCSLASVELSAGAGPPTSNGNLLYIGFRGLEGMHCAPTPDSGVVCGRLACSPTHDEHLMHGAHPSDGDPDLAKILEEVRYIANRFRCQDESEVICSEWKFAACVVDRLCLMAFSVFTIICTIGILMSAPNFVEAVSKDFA

| Effect (Oocyte [1]) | Effect [2] | IC50 [3] | Effect [4] | Effect [5] | Effect ([2]; filed as antagonist) | IC50 [16] | Effect ([5]; filed as antagonist) | SMILES | Effect [6] | Activation [7] | IC50 [8] | Effect [9] | EC50 [10] | Activation [11] | Activation [12] | Activation [13] | Activation (Oocyte [14]) | Activation [15] |
| --- | --- | --- | --- | --- | --- | --- | --- | --- | --- | --- | --- | --- | --- | --- | --- | --- | --- | --- |
| inactive | inactive | 170 µM | inactive | inactive | – | – | – | CN1[C@@H]2CC[C@H]1C[C@@H](OC(=O)c1c[nH]c3ccccc13)C2 [TROPISETRON] | – | – | – | – | – | – | – | – | – | – |
| inactive | – | 66 µM | inactive | – | Antagonist | 25 µM | Antagonist | Cc1nccn1CC1CCc2c(c3ccccc3n2C)C1=O (stereo not drawn) [ONDANSETRON] | – | – | 27 µM | – | – | – | – | – | – | – |

| SMILES | Effect (Oocyte [1]) | Effect [2] | IC50 [3] | Effect [4] | Effect [5] | Effect ([2]; filed as antagonist) | IC50 [16] | Effect ([5]; filed as antagonist) | Effect [6] | Activation [7] | IC50 [8] | Effect [9] | EC50 [10] | Activation [11] | Activation [12] | Activation [13] | Activation (Oocyte [14]) | Activation [15] |
| --- | --- | --- | --- | --- | --- | --- | --- | --- | --- | --- | --- | --- | --- | --- | --- | --- | --- | --- |
| O=C1NC[C@@]2(CN3CCC2CC3)O1 | – | – | > 2000 µM | – | – | – | – | – | inactive | inactive | > 1000 µM | inactive | 0.38 µM | 2% | 1% | 2% | 3% | 1% |
